Results from paper PMC10734620, “A blinded in vitro analysis of the intrinsic immunogenicity of hepatotoxic drugs: implications for preclinical risk assessment” (Toxicological Sciences, 2023).
pIC50: −log10 of the molar value. Where two headings read alike, the source gives them in different places.

Tests used:
PBMC = test: Inhibition of mitogen-induced (PHA-P) PBMC proliferation; type: cell-based, human; details: read-out: IC50, inhibition of mitogen-driven PBMC proliferation
Procedure: Test compounds were provided by GSK to Liverpool as blinded dry powders with a given volume of dimethyl sulfoxide to prepare stock concentrations of 50 mM. Stock concentrations were aliquoted and stored at −80°C until required for experiments. A fresh aliquot was utilized for every experiment. PBMC from 3 healthy donors were used to determine the maximum tolerated concentration of each test compound. PBMC (0.15 × 10^6) were cultured with graded compound concentrations in U-bottomed 96-well plates for 48 h at 37°C, 5% CO2. Phytohemagglutinin (PHA-P; 10 µg/ml) was added to cells for a further 24 h followed by assessment of proliferation through the addition of [^3H]-thymidine (0.5 µCi/well) for the last 16 h. […] The IC50 value was then calculated using 4-parameter logistic curve-fitting model (GraphPad prism 7.0).
Figure 2. Toxicity profiles of training and test compounds. […] PHA-P (10 µg/ml) was added to cells for a further 24 h followed by assessment of proliferation through the addition of [^3H]-thymidine (0.5 µCi/well) for the last 16 h. […] 4-parameter logistic functions were fit to the data and IC50 values were then reported (GraphPad prism 7.0). […] LPB (Liverpool Pharmacology Biobank) represents the unique identifier for PBMC isolated from each consented healthy blood donor for drug safety research. Percentage proliferation for each compound concentration = Proliferation following drug exposure divided by proliferation after cell culture media exposure multiplied by 100.

T-cell clones = test: Generation and drug-specificity testing of T-cell clones; type: cell-based, human; details: for Detection of drug-responsive T-cell clones / T-cell clones responsive to drug (SI ≥ 2): 3 donors; for Detection of drug-responsive T-cell clones: SI ≥ 2; for Dose-dependent proliferation of drug-responsive T-cell clones: titrated concentrations, 48 h, EBV-transformed B-cells; for T-cell clones responsive to drug (SI ≥ 2): training compounds, maximum of 216 clones per donor; for Overall immunogenicity call in T-cell assays: priming assay and/or T-cell clones
Procedure: To establish T-cell lines, PBMC from 3 healthy HLA-typed (Table 2) donors were cultured with individual test compounds (at concentrations not associated with inhibition of mitogen-driven PBMC proliferation; see Figure 2 for individual concentrations) for 14 days. Medium was supplemented with IL-2 (50 U/ml; Peprotech, New Jersey) to maintain drug-specific T-cell expansion. T-cell clones were generated from the T-cell lines by serial dilution and repetitive mitogen stimulation ([Schnyder et al., 2000]). T-cells (0.3–3 cells/well) were cultured with irradiated allogenic PBMC (5 × 10^4/well) and PHA-P (1 µg/ml) in IL-2 containing medium. The medium was supplemented with fresh IL-2 on days 6, 9 and every 2 days thereafter. Growing cultures were expanded further with a second round of mitogen stimulation and tested for drug-specific T-cell proliferation on day 28. Cloned T-cells (5 × 10^4/well) were cultured with irradiated autologous EBV-transformed B-cells (1 × 10^4/well) and drug in duplicate wells for 48 h. Wells containing medium served as a negative control. Proliferation was measured by the addition of [^3H]-thymidine followed by scintillation counting. T-cell clones with SI ≥ 2 were considered drug-responsive and expanded using irradiated allogeneic PBMC for dose-response studies and assessment of CD4/8 phenotyping.
Proliferation was measured by the addition of [^3H]-thymidine as described above.
T-cell clones were washed with FACS buffer and CD phenotype determined using flow cytometry. Cells (10 000) were acquired using a FACSCanto II (BD Biosciences) and data analyzed by FACSDiva software.
Figure 6. Generation of training compound (nitroso sulfamethoxazole, vancomycin, and Bandrowski’s base)-specific T-cell clones. PBMC from 3 healthy donors were cultured with training compounds and supplemented with IL-2 (50 U/ml) for 14 days. T-cell clones were generated from the T-cell lines by serial dilution and repetitive mitogen stimulation. T-cells (0.3–3 cells/well) were stimulated with irradiated allogenic PBMC (5 × 10^4/well) and phytohemagglutinin (1 µg/ml). Well growing cultures were subjected to a second round of expansion then tested for drug-specific T-cell proliferation. Proliferation was measured by the addition of ^3H-thymidine followed by scintillation counting. A–C, Initial specificity test for nitroso sulfamethoxazole, vancomycin, and Bandrowski’s base clones. T-cell clones showing stimulation index, SI ≥ 2 were considered drug-responsive and expanded and used in dose-response studies. SI = Drug-induced T-cell proliferation divided by T-cell proliferation in cell culture media. […] T-cell activation was determined using [^3H]-thymidine incorporation.
Figure 7. […] PBMC from 3 healthy donors were cultured with test compounds and supplemented with IL-2 (50 U/ml) for 14 days. T-cell clones were generated from the T-cell lines by serial dilution and repetitive mitogen stimulation. T-cells (0.3–3 cells/well) were stimulated with irradiated allogenic PBMC (5 × 10^4/well) and phytohemagglutinin (1 µg/ml). Well growing cultures were subjected to a second round of expansion then tested for drug-specific T-cell proliferation. Proliferation was measured by the addition of ^3H-thymidine followed by scintillation counting. […] T-cell activation was determined using [^3H]-thymidine incorporation.

naïve T-cells = test: Priming of naïve human T-cells (dendritic cell-T-cell coculture); type: cell-based; details: for Proliferation of primed T-cells restimulated with titrated concentrations: 3 drug concentrations (low, medium, high), 48 h; for Number of donors with naïve T-cell priming: 3 study donors; for Proliferation of primed T-cells, drug- vs medium-restimulated wells: 14 days priming, restimulation 48 h at single concentration, 48 wells, [3H]-thymidine
Procedure: CD14+ monocytes were positively selected using CD14 antibody-conjugated microbeads. This was followed by the depletion of CD25+ cells from the CD14- population and the negative selection of CD45RA+ naïve T-cells. […] Dendritic cells were generated by culturing monocytes with a cocktail of GM-CSF (800 U/ml) and IL-4 (800 U/ml) in culture media for 6 days. Both cytokines were purchased from Peprotech (New Jersey). A maturation cocktail of TNF-α (25 ng/ml) and LPS (1 µg/ml) was added for 16 h before establishing the T-cell priming culture. Dendritic cells (8 × 10^3 per well) were cultured with naïve T-cells (1 × 10^5 per well) and the test compounds in a 96-well U-bottom tissue culture plate for 14 days at 37°C, 5% CO2. Cells were then washed extensively to remove unbound drug and cultures were restimulated with test compound or medium control (48 wells) for 48 h. Subsequent experiments were performed with training compounds to investigate the dose-dependent stimulation of naïve T-cells. In these experiments, T-cells were cultured with 3 concentrations of the test compound and medium (negative control) during the restimulation step. T-cell proliferative responses were determined by addition of [^3H]-thymidine (0.5 µCi/well) for the final 16 h of the culture period. Plates were harvested and counted as described above. […] Student’s t test was performed to determine statistical significance of T-cell proliferation when comparing medium- and drug-treated cultures (*p ≤ .05; **p ≤ .005; ***p < .001).
Figure 3. Naïve T-cell priming with training compounds. CD14+ monocytes were utilized to generate dendritic cells with a cocktail of GM-CSF (800 U/ml) and IL-4 (800 U/ml) in culture media for 6 days. […] A, Nitroso sulfamethoxazole. B, Vancomycin. C, Bandrowski’s base. D, Carbamazepine. E, Piperacillin. The degree of naïve T-cell priming was determined by comparing the counts per minutes (cpm) of drug and media-treated cultures using a beta counter. Student’s t test was performed to determine statistical significance (*p ≤ .05; **p ≤ .005; ***p < .001). Each data point represents T-cells proliferation in individual well of a 96 U-bottomed plate.
Figure 4. Dose-dependent stimulation of primed T-cells with training compound. […] Primed cells were washed extensively and then restimulated with 3 drug concentrations (low, medium, and high) for 48 h followed by determination of T-cell activation by [^3H]-thymidine incorporation. Each data point represents T-cells proliferation in individual well of a 96 U-bottomed plate.
Figure 5. Naïve T-cell priming with test compounds. […] B, Dacarbazine. […] F, Iproniazid. G, Mepivacaine. H, Nevirapine. […] J, Phenoxybenzamine. Primed cells were washed extensively and then restimulated medium or drug for 48 h followed by determination of T-cell activation by [^3H]-thymidine incorporation. Each data point represents T-cells proliferation in individual well of a 96 U-bottomed plate.

[1] = set-up: method as in Sakatis et al., 2012; Schofield et al., 2021; details: Positive = above the threshold of concern; assays not listed negative; ref Sakatis et al., 2012; Schofield et al., 2021; cited from earlier work
[2] = Homo sapiens, PBMC, PBMC from 3 healthy donors, compound 48 h, then PHA-P 10 µg/ml 24 h, [3H]-thymidine
[3] = PBMC from 3 healthy donors, compound 48 h, then PHA-P 10 µg/ml 24 h, [3H]-thymidine

NC1=CC(=N\c2ccc(N)cc2)/C(N)=CC/1=N/c1ccc(N)cc1 [Bandrowski's base]
pIC50 (PBMC; [2]): 5.30 | Detection of drug-responsive T-cell clones (T-cell clones): detected from each donor | Dose-dependent proliferation of drug-responsive T-cell clones (T-cell clones): proliferate in a dose-dependent manner | T-cell clones responsive to drug (SI ≥ 2) (T-cell clones): 13% | Proliferation of primed T-cells restimulated with titrated concentrations (naïve T-cells): stimulated to proliferate in the presence of all 3 concentrations | Number of donors with naïve T-cell priming (naïve T-cells): 3 | Proliferation of primed T-cells, drug- vs medium-restimulated wells (naïve T-cells): Proliferation of primed T-cells was observed

NC(=O)N1c2ccccc2C=Cc2ccccc21 [Carbamazepine]
pIC50 (PBMC; PBMC from 3 healthy donors, compound 48 h, then PHA-P 10 µg/ml 24 h, [3H]-thymidine, listed as carbamazepine): ≤ 4.30 | pIC50 (PBMC; [3]): 3.59 | Detection of drug-responsive T-cell clones (T-cell clones): not detected | Number of donors with naïve T-cell priming (naïve T-cells): 1 | Proliferation of primed T-cells, drug- vs medium-restimulated wells (naïve T-cells): not observed | Proliferation of primed T-cells on restimulation at highest concentration (naïve T-cells; restimulated at 200 µM): weakly significant proliferative response

CN(C)CCOC(c1ccccc1)c1ccccc1 [Diphenhydramine]
Overall immunogenicity call in T-cell assays (T-cell clones): no false positives

CC[C@H]1OC(=O)[C@H](C)[C@@H](O[C@H]2C[C@@](C)(OC)[C@@H](O)[C@H](C)O2)[C@H](C)[C@@H](O[C@@H]2O[C@H](C)C[C@H](N(C)C)[C@H]2O)[C@](C)(O)C[C@@H](C)C(=O)[C@H](C)[C@@H](O)[C@]1(C)O [Erythromycin]
pIC50 (PBMC; PBMC from 3 healthy donors, compound 48 h, then PHA-P 10 µg/ml 24 h, [3H]-thymidine, listed as erythromycin): ≤ 4.30 | pIC50 (PBMC; [3]): 3.80 | Routine Assays that are Positive (GSK) [1]: Reactive metabolite | Number of drug-responsive T-cell clones (T-cell clones; donor 2): 3 | T-cell clones stimulated to proliferate, donor 2 (T-cell clones; donor 2, maximum of 144 clones per donor): 2% | Detection of drug-responsive T-cell clones, other donors (T-cell clones; donors other than donor 2): not detected | CD phenotype of drug-responsive T-cell clones (T-cell clones; flow cytometry CD4/CD8): CD4+ | Overall immunogenicity call in T-cell assays (T-cell clones): potentially immunogenic | Dose-dependent proliferation of drug-responsive T-cell clones (T-cell clones): dose-dependent proliferative responses

Cc1cc(NS(=O)(=O)c2ccc(N=O)cc2)no1 [Nitroso sulfamethoxazole, 4-Nitrososulfamethoxazole]
pIC50 (PBMC; PBMC from 3 healthy donors, compound 48 h, then PHA-P 10 µg/ml 24 h, [3H]-thymidine, listed as nitroso sulfamethoxazole): ≤ 4.30 | pIC50 (PBMC; [3]): 3.60 | Detection of drug-responsive T-cell clones (T-cell clones): detected from each donor | Dose-dependent proliferation of drug-responsive T-cell clones (T-cell clones): proliferate in a dose-dependent manner | T-cell clones responsive to drug (SI ≥ 2) (T-cell clones): 10.0% | Proliferation of primed T-cells restimulated with titrated concentrations (naïve T-cells): stimulated to proliferate in the presence of all 3 concentrations | Number of donors with naïve T-cell priming (naïve T-cells): 3 | Proliferation of primed T-cells, drug- vs medium-restimulated wells (naïve T-cells): Proliferation of primed T-cells was observed

CCN1CCN(C(=O)N[C@@H](C(=O)N[C@@H]2C(=O)N3[C@@H]2SC(C)(C)[C@@H]3C(=O)O)c2ccccc2)C(=O)C1=O [Piperacillin]
pIC50 (PBMC; [2]): 3.00 | Detection of drug-responsive T-cell clones (T-cell clones): not detected | Proliferation of primed T-cells restimulated with titrated concentrations (naïve T-cells): not detected | Proliferation of primed T-cells, drug- vs medium-restimulated wells (naïve T-cells): not observed

CN[C@H](CC(C)C)C(=O)N[C@H]1C(=O)N[C@@H](CC(N)=O)C(=O)N[C@H]2C(=O)N[C@H]3C(=O)N[C@H](C(=O)N[C@H](C(=O)O)c4cc(O)cc(O)c4-c4cc3ccc4O)[C@H](O)c3ccc(c(Cl)c3)Oc3cc2cc(c3O[C@@H]2O[C@H](CO)[C@@H](O)[C@H](O)[C@H]2O[C@H]2C[C@](C)(N)[C@H](O)[C@H](C)O2)Oc2ccc(cc2Cl)[C@H]1O [Vancomycin]
pIC50 (PBMC; Homo sapiens, PBMC): 2.70 | Detection of drug-responsive T-cell clones (T-cell clones): detected from each donor | Dose-dependent proliferation of drug-responsive T-cell clones (T-cell clones): proliferate in a dose-dependent manner | T-cell clones responsive to drug (SI ≥ 2) (T-cell clones): 9.7% | Proliferation of primed T-cells restimulated with titrated concentrations (naïve T-cells): stimulated to proliferate in the presence of all 3 concentrations | Number of donors with naïve T-cell priming (naïve T-cells): 3 | Proliferation of primed T-cells, drug- vs medium-restimulated wells (naïve T-cells): Proliferation of primed T-cells was observed
